{"source": "patent US4925835A", "about": "“Aziridinyl putrescine containing compositions and their uses in treating prostate cancer” (priority 1987, dated 1990)", "key": {"[1]": {"test_system": "human prostate cancer cell line PC-3", "experiment": "cells", "assay_type": "cell-based", "method": "Aziridinyl putrescine 1-(4-aminobutyl) aziridine was synthesized using the method as described by Piper, et al., J. Med. Chem. 12: 236-243 (1968). Cells of the human prostate cancer cell line PC-3 were used.\n10^3 PC-3 human cells were plated in RPMI 1640 with 10% FCS/3 ml in 60 mm^2 petri dishes. The cell plates were incubated either with, or without difluoromethylornithine for 48 hours. This was followed by aspiration, and replacement with a medium containing either no additives, 50 uM 1-(4-aminobutyl) aziridine, 1 mM putrescine, or both 50 uM 1-(4-aminobutyl) aziridine and 1 mM putrescine. The media were aspirated after 1 hour, and replaced with a drug free medium. Incubation continued for 5 days.\n*Represents mean number of colonies ± one standard deviation of\ntriplicate assay. Number in parenthesis is percent of control."}, "[2]": {"test_system": "uptake of [14C]putrescine into PC-3 cells", "assay_type": "cell-based, human", "settings": "PC-3 cells", "method": "FIG. 1. Lineweaver-Burk plot of the uptake of [^14 C]putrescine by DFMO-pretreated cells. The ordinate is expressed as 1/pmol/15 min. The abscissa is expressed as 1 μM concentrations containing from 16 to 1.0 μM [^14 C]putrescine.\nFifty thousand PC-3 cells were plated in 12-well plates and 18 h later the incubation medium was removed and replaced with 1 ml or RPMI 1640 medium containing 25 mM 4-(2-hydroxyethyl)-1-piperazineethansulfonic acid buffer, 100 μM aminoguanidine, and 10% FCS. Forty-eight h later the medium was replaced with medium which contained [^14 C]putrescine in concentrations ranging from 16 to 1.0 μM with or without 5 1M 1-(4-aminobutyl) aziridine. Following incubation at 37° C. for 15 min the [^14 C]putrescine-containing medium was aspirated, and the cells were rinsed rapidly 4 times with HBSS. Following the last rinse, 1.0 ml of a solution of 0.1N NaOH was added and after a 2-h incubation at room temperature a 0.2-ml aliquot was added to 1 ml of 2% glacial acidic acid and 10 ml of Scintiverse 1 scintillation cocktail and the radioactive disintegrations were determined with a Packard Tri-Carb 300 scintillation spectrophotometer. Counting efficiency for ^14 C was 80%. Kinetic analysis of uptake was performed by graphic methods as described by Dixon and Webb, Enzymes, p. 322, New York Academic Press (1959).\nIn FIG. 1 a Lineweaver-Burk plot of the uptake of [^14 C]-putrescine into the PC-3 cells is presented and was used to determine the Km (intercept x axis) and Vmax (intercept y axis) for putrescine."}, "[3]": {"experiment": "Alkylating activity with 4-(p-nitrobenzyl)pyridine", "settings": "100 nmol in 5.0 ml, 0.1M acetate, PH 4.5, 37° C., 2 h", "method": "The preparation of 1-(4-aminobutyl) aziridine from 1,4-diaminobutane (putrescine) was performed by the three-step synthetic method reported by Piper et al. supra.\n1-(4-aminobutyl) aziridine (100 nmol) produced an absorbance increase of 0.7 with 4-(p-nitrobenzyl)pyridine in 5.0 ml when incubated in 0.1M acetate, PH 4.5, at 37° C. for 2 h. […] The retention times were: putrescine, 19.6 min; 1-(4-aminobutyl) aziridine, 21.1 min; and histamine, 21.8 min."}, "[4]": {"test_system": "PC-3 cells", "experiment": "Polyamine assays: intracellular polyamine levels by HPLC", "assay_type": "cell-based, human", "method": "One h later the medium was aspirated and the cells were rinsed with cold HBSS. Three plates were treated with dilute trypsin to release the cells from the plate and provide a single cell suspension. The viability of the cells and the number of cells per plate were determined by trypan blue exclusion and counting with the aid of a hemocytometer. […] The other three plates were extracted with 0.4N perchloric acid and the polyamines were measured by fluorescence following postcolumn derivatization with o-phthalaldehyde following separation by the reverse phase ion-pair high performance liquid chromatography procedure of Wagner et al., J. Chomatogr., 227: 349-368, 1982.\nIn Table 2 are listed the values for the triplicate assays of the concentrations of polyamine observed in nontreated cells, cells treated with 1-(4-aminobutyl) aziridine for 1 h, cells pretreated for 48 h with 1 mM difluoromethylornithine and then incubated in drug free medium for 1 h, or cells pretreated for 48 h with difluoromethylornithine, rinsed free of difluoromethylornithine, and then incubated with 25 μM 1-(4-aminobutyl)aziridine for 1 h. All groups had cell viabilities greater than 95% and cell numbers were 4.9±0.6 (SE), 4.9±0.7, 4.8±0.4, and 4.6±0.4×10^6 cells for the control, 1-(4-aminobutyl) aziridine, difluoromethylornithine, and difluoromethylornithine+1-(4-aminobutyl) aziridine groups, respectively. The apparent amount of 1-(4-aminobutyl) aziridine in the difluoromethylornithine-treated cells was 3.7 times that of the 1-(4-aminobutyl) aziridine-only-treated cells. No N^8 -acetylspermidine, acetylputrescine, or cadaverine was detected in any group. A peak was detected at a wavelength of 254 nm in the difluoromethylornithine treatment groups that corresponds to the retention time of decarboxylated S-adenosylmethionine.\n^a PC-3 cells were incubated with or without 1 mM DFMO for 48 h. Cell\nwere then rinsed free of DFMO and incubated for 1 h with 25 μM AZP. Th\ncells were washed free of AZP by three rinses of HBSS. With one set of\ntriplicate plates, the cells were resuspended and counted by hemocytomete\nand viability was determined by trypan dye exclusion (viability > 95%).\nAnother set triplicate plates was extracted with icecold perchloric acid\nand filtered and the polyamine concentrations were determined by HPLC.\n^b Mean ± SE for a triplicate assay. Histamine is included as a […]"}, "[5]": {"settings": "PC-3, ±1 mM DFMO 48 h, then ±25 μM AZP 1 h, mean ± SE"}}, "data": [{"smiles": "NCCCCN1CC1", "note": "[AZP, 1-(4-aminobutyl) aziridine]", "values": [{"measurement": "activity at 50 µM", "setting": "[1]; Homo sapiens, PC-3, read-out: Clonogenic survivors, percent of control", "result": 36, "unit": "%"}, {"measurement": "inhibition at 50 µM", "setting": "[1]; Homo sapiens, PC-3, read-out: Inhibition of proliferation of human prostate cancer cells in culture, AZP at 50 uM, from Table 1", "result": "~64", "unit": "%"}, {"measurement": "Clonogenic survivors (mean number of colonies ± one standard deviation)", "setting": "[1]; PC-3, 48 h with or without DFMO, then 1 h with 50 uM AZP and/or 1 mM putrescine, 5 days drug free", "result": "210 ± 30", "unit": "colonies"}, {"measurement": "Type of inhibition of putrescine uptake", "setting": "[2]", "result": "consistent with competitive inhibition"}, {"measurement": "Ki", "setting": "[2]; with or without difluoromethylornithine pretreatment, 5 1M AZP, read-out: Apparent Ki for inhibition of putrescine uptake", "result": 1, "unit": "µM"}, {"measurement": "Absorbance increase with 4-(p-nitrobenzyl)pyridine (alkylating activity)", "setting": "[3]", "result": 0.7}, {"measurement": "Apparent amount of AZP in DFMO-treated cells relative to AZP-only-treated cells", "setting": "[4]; 25 μM AZP 1 h, 1 mM DFMO 48 h pretreatment", "result": 3.7, "unit": "times"}, {"measurement": "Polyamine levels: AZP", "setting": "[4]; PC-3, ±1 mM DFMO 48 h, then 25 μM AZP 1 h, mean ± SE", "result": "115 ± 32", "unit": "pmol/10^6"}, {"measurement": "Cell numbers at end of treatment", "setting": "[4]; PC-3, ±1 mM DFMO 48 h, then ±25 μM AZP 1 h, SE", "result": "4.9±0.7 ×10^6 cells"}, {"measurement": "Polyamine levels: Hist (histamine, nonpolyamine control)", "setting": "[4]; [5]", "result": "86 ± 25", "unit": "pmol/10^6"}, {"measurement": "Polyamine levels: NaSpm (N-acetylspermine)", "setting": "[4]; [5]", "result": "125 ± 28", "unit": "pmol/10^6"}, {"measurement": "Polyamine levels: PUT (putrescine)", "setting": "[4]; [5]", "result": "2520 ± 170", "unit": "pmol/10^6"}, {"measurement": "Polyamine levels: Spd (spermidine)", "setting": "[4]; [5]", "result": "2884 ± 100", "unit": "pmol/10^6"}, {"measurement": "Polyamine levels: Spm (spermine)", "setting": "[4]; [5]", "result": "3604 ± 323", "unit": "pmol/10^6"}]}]}
